Measured values from patent US20130072495A1, “FUSED BICYCLIC KINASE INHIBITORS” (OSI Pharmaceuticals, LLC, priority 2010, published 2013).

Key:
Type in all cases: cell-based
MKN45 cells = assay: MKN45 cell proliferation assay (CellTiter-Glo); conditions: Homo sapiens, MKN-45, 72 h; MKN45 cell line, 3 days incubation, at least duplicate experiments; read-out: Prolif. IC50
Procedure: The effect of inhibitors on the proliferation of MKN45 cells was determined using the following protocol. MKN45 cells were plated in Corning 3917 96-well white tissue culture treated plates in growth medium (RPMI, 10% FCS) at a density of 5000 cells/well in a total volume of 135 μL and incubated at 37° C., 5% CO2, 95% humidity overnight. The following day, one-tenth volume of a 10× concentration of compounds was added to the wells in an 8-point dilution series. The dilution series was composed of an initial 1:5 dilution of a 10 mM stock of compound in DMSO, followed by serial 1:4 dilutions in DMSO, then a 1:20 dilution in growth medium prior to the 1:10 dilution into the cell plate. Final DMSO concentration on the cells was 0.1%, there were control wells treated with both 0.1% DMSO and no DMSO. The typical dilution range is 10 μM to 0.6 nM. Once the compound was added to the cells, plates were incubated for 3 days at 37° C., 5% CO2 at 95% humidity. On the third day, after allowing all cells and reagents to come to room temperature, 25 μL of CellTiter-Glo reagent (Promega # G7573) was added to the wells. Plates were shaken on a platform for 10 minutes prior to reading luminescence for 0.1 seconds. The signal of the control wells was taken as 100% growth and growth inhibition was expressed as percent of control. IC50 values were determined from the percent of control data using a standard four-parameter model.
(§1) The IC50 values of exemplary compounds of the present invention determined in a cell proliferation assay using the MKN45 cell line according to the procedures described herein in at least duplicate experiments are abbreviated as follows and are shown in Table 1: A, IC50≦0.1 μM; B, 0.1 μM<IC50≦0.5 μM; C, 0.5 μM<IC50≦2 μM; D, IC50>2 μM; ND, not determined. The Example # of Table 1 corresponds to the compound example number as illustrated in the Experimental section above.
Treatment of this cell line with a selective MET inhibitor led to induction of apoptosis and inhibition of proliferation, whereas non-MET-amplified cell lines were not affected. Smolen et al., Proc. Natl. Acad. Sci. USA, 103(7):2316-2321 (2006). This cell line is thus “driven” by MET, and antiproliferative effects correlate very well with the inhibition of MET phosphorylation so that the cell proliferation IC50 values can be used as surrogate for the MET cell mechanistic IC50 values. Under the assay conditions described herein, the IC50 values correlate nearly 1:1.

sfRON = molecular target: T1, sfRON (Homo sapiens, UniProt Q04912); assay: sfRON cell mechanistic assay (HeLa), phosphorylated RON levels; conditions: sfRON transfected HeLa cells, four hours incubation, at least duplicate experiments, read-out: sfRON mech IC50
T1 construct: expressed in transfected cells; host or cells: HeLa (transient transfection, Lipofectamine-2000, sfRON-pcDNA plasmid)
T1 sequence (Q04912 913-1400 limits assumed): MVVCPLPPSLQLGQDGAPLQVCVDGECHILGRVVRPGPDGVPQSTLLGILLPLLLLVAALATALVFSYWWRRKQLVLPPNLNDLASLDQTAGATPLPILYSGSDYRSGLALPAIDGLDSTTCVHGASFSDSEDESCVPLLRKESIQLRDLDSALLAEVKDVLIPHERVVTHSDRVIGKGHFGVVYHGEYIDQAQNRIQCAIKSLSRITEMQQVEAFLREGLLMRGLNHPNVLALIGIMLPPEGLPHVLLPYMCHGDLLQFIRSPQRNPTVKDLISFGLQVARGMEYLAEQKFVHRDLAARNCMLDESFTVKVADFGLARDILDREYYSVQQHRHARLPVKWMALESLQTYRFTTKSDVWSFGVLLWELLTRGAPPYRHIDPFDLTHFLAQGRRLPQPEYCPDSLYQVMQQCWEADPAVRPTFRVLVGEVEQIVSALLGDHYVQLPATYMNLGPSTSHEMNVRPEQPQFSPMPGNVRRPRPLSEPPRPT
Procedure: The cellular activity of the compounds of the present invention against RON may be determined by the following procedure. HeLa cells were plated in Falcon 3072 96-well plates in growth media (DMEM, 10% FBS, 1% L-glutamine) at a density of 10000 cells/well and incubated at 37° C., 5% CO2 overnight. The following day, cells were transfected with 0.2 μg sfRON-pcDNA plasmid DNA with 0.5 μL Lipofectamine-2000 per well in the presence of 50 μL OPTI-MEM, incubated at 37° C., 5% CO2 overnight. Costar 3915 96-well assay plates were coated with rabbit Anti-RON antibody at 2.0 μg/mL, sealed, and incubated overnight at 4° C. On the third day, coated plates were washed with PBS and blocked with 3% BSA. For the sfRON transfected cells, one-tenth volume of a 10× concentration of compounds was added to the wells in a 6-point dilution series. The dilution series was composed of an initial 1:5 dilution of a 10 mM DMSO stock solution of compound in DMSO, followed by a 1:10 dilution in growth media, for a final DMSO concentration on cells of 0.5%. Control wells were treated with 0.5% DMSO. The typical range of dilution was 10 μM to 3 nM. Once compound was added to the cells, plates were incubated for four hours at 37° C., 5% CO2. Plates were then washed in PBS, and lysed in triton-based lysis buffer. Lysates were transferred to the blocked capture plates. The phosphorylated RON levels were measured by incubating with a Goat polyclonal antibody against phosphorylated RON ([pYpY1238/1239]) followed by an anti-Goat antibody conjugated to HRP. Signal was measured on a Wallac Victor plate reader with luminance. The DMSO signal of the control wells was defined as 100% and the percent of inhibition of phosphorylated RON was expressed as percent of control. IC50 values were determined from the percent of control data using a standard four-parameter model.
The IC50 values of exemplary compounds of the present invention determined in a sfRON cell mechanistic assay using the HeLa cell line according to the procedures described herein in at least duplicate experiments are abbreviated as follows and are shown in Table 3: A, IC50≦0.1 μM; B, 0.1 μM<IC50≦0.5 μM; C, 0.5 μM<IC50≦1 μM; D, IC50>1 μM; ND, not determined. The Example # of Table 3 corresponds to the compound example number as illustrated in the Examples section.

MET = molecular target: T2, MET (Homo sapiens, UniProt P08581); assay: MET cell mechanistic assay (MKN45), phosphorylated MET levels; conditions: MKN45 cell line, four hours incubation, at least duplicate experiments, read-out: MET mech IC50
T2 construct: endogenous in cells; host or cells: MKN45
T2 sequence (P08581 25-1390): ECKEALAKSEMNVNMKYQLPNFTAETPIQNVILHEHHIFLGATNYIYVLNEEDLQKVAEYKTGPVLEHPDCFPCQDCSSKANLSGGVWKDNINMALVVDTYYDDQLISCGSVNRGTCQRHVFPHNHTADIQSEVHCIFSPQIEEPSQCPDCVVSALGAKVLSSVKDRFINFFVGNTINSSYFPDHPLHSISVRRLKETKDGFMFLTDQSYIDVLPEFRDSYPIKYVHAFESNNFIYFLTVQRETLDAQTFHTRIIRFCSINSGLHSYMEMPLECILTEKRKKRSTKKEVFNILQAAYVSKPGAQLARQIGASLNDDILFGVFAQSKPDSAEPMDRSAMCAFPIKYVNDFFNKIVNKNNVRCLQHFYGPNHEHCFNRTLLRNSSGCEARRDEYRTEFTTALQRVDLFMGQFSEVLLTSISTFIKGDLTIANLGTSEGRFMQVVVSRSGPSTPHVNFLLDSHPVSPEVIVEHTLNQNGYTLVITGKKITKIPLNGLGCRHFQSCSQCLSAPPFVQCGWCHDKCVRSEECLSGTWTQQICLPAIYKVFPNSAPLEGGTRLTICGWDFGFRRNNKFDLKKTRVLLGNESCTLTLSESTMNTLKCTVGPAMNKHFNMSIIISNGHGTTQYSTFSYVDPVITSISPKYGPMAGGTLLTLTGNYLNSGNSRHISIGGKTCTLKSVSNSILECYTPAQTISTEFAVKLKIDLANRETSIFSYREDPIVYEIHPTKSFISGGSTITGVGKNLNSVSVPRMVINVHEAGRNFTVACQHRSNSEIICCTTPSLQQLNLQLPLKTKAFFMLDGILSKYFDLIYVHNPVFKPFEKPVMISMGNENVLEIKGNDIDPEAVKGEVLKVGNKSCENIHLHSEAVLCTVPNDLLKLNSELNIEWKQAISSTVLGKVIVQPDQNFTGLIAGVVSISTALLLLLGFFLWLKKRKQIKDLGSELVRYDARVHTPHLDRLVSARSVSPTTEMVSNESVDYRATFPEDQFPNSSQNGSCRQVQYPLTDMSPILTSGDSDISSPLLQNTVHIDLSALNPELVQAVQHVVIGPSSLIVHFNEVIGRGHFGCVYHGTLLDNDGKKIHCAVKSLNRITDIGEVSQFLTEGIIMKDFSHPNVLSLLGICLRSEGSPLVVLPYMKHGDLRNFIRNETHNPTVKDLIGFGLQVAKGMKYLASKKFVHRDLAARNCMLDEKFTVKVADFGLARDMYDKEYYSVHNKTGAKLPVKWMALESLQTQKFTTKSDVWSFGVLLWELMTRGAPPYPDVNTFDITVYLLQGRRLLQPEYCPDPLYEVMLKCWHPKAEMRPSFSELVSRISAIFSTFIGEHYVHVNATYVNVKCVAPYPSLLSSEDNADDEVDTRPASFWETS
Procedure: The cellular activity of the compounds of the present invention against MET may be determined by the following procedure. MKN45 cells were plated in Falcon 3072 96-well plates in growth media (RPMI, 10% FBS, 1% L-glutamine) at a density of 5000 cells/well and incubated at 37° C., 5% CO2 overnight. The following day, one-tenth volume of a 10× concentration of compounds was added to the wells in a 6-point dilution series. The dilutions series was composed of an initial […] in DMSO, followed by a […] in growth media, for a final DMSO concentration on cells of 0.5%. Control wells were treated with 0.5% DMSO. The typical range of dilution was 10 μM to 3 nM. Once compound was added to the cells, plates were incubated for four hours at 37° C., 5% CO2. Plates were then washed in PBS, and lysed in triton-based lysis buffer. Lysates were transferred to a precoated capture plate made by Biosource (Cat # KHO0281). The phosphorylated MET levels were measured by incubating with a rabbit polyclonal antibody against phosphorylated MET ([pYpYpY1230/1234/1235]) followed by an anti-rabbit antibody conjugated to HRP. Signal was measured on a Wallac Victor plate reader at 450 nm. The DMSO signal of the control wells was defined as 100% and the percent of inhibition of phosphorylated MET was expressed as percent of control. IC50 values were determined from the percent of control data using a standard four-parameter model.
as §1, with “in a MET cell mechanistic” for “in a cell proliferation”, “MET cell mechanistic assay using” for “a cell proliferation assay using”, “in Table 2: A, IC50≦0.1” for “in Table 1: A, IC50≦0.1”, “of Table 2 corresponds to” for “of Table 1 corresponds to”

In the case of `COc1ccc(F)c(Cl)c1[C@@H](C)c1n[nH]c2ncc(-c3cnn(C4CCNCC4)c3)cc12` [Example 12, 3-[(1R)-1-(2-chloro-3-fluoro-6-methoxyphenyl)ethyl]-5-[1-(piperidin-4-yl)-1H-pyrazol-4-yl]-1H-pyrazolo[3,4-b]pyridine], the IC50 (MKN45 cells) is reported as no more than 100 nM.

`CC(c1c(Cl)ccc(F)c1Cl)c1c[nH]c2nnc(-c3cnn(C)c3)cc12` (stereo not shown) [Example 15, 5-[1-(2,6-Dichloro-3-fluorophenyl)ethyl]-3-(1-methyl-1H-pyrazol-4-yl)-7H-pyrrolo[2,3-c]pyridazine] gave an IC50 (MKN45 cells) greater than 2000 nM.

In the case of `C[C@H](c1c(Cl)ccc(F)c1Cl)n1ccc2ncc(-c3cnn(C4CCNCC4)c3)cc21` [Example 5, 1-[(1R)-1-(2,6-Dichloro-3-fluorophenyl)ethyl]-6-[1-(piperidin-4-yl)-1H-pyrazol-4-yl]-1H-pyrrolo[3,2-b]pyridine], the IC50 (MKN45 cells) is reported as no more than 100 nM and the IC50 (sfRON) is reported as 500 to 1000 nM.

For `COc1ccc(F)c(Cl)c1[C@H](C)c1n[nH]c2ncc(-c3cnn([C@H]4CC[C@H](O)CC4)c3)cc12` [Example 11, trans-4-(4-{3-[(1S)-1-(2-Chloro-3-fluoro-6-methoxyphenyl)ethyl]-1H-pyrazolo[3,4-b]pyridin-5-yl}-1H-pyrazol-1-yl)cyclohexanol], the IC50 (MKN45 cells) was greater than 2000 nM.

`C[C@H](c1c(Cl)ccc(F)c1Cl)n1ccc2ncc(-c3cnn(C[C@H](O)CO)c3)cc21` [Example 8, (2S)-3-(4-{1-[(1R)-1-(2,6-Dichloro-3-fluorophenyl)ethyl]-1H-pyrrolo[3,2-b]pyridin-6-yl}-1H-pyrazol-1-yl)propane-1,2-diol] gave an IC50 (MKN45 cells) of 100 to 500 nM and an IC50 (sfRON) of 500 to 1000 nM.

Work on `COc1ccc(F)c(Cl)c1[C@@H](C)c1n[nH]c2ncc(-c3cnn(C[C@H](O)CO)c3)cc12` [Example 13, (2S)-3-(4-{3-[(1R)-1-(2-chloro-3-fluoro-6-methoxyphenyl)ethyl]-1H-pyrazolo[3,4-b]pyridin-5-yl}-1H-pyrazol-1-yl)propane-1,2-diol] yielded an IC50 (MKN45 cells) of 100 to 500 nM.

With `C[C@H](c1c(Cl)ccc(F)c1Cl)n1ccc2ncc(-c3cnn([C@H]4CC[C@H](O)CC4)c3)cc21` [Example 7, trans-4-(4-{1-[(1R)-1-(2,6-Dichloro-3-fluorophenyl)ethyl]-1H-pyrrolo[3,2-b]pyridin-6-yl}-1H-pyrazol-1-yl)cyclohexanol] the IC50 (MKN45 cells) was 100 to 500 nM and the IC50 (sfRON) was 100 to 500 nM.

With `COc1ccc(F)c(Cl)c1[C@@H](C)c1n[nH]c2ncc(-c3cnn(C)c3)cc12` [Example 14, 3-[(1R)-1-(2-chloro-3-fluoro-6-methoxyphenyl)ethyl]-5-(1-methyl-1H-pyrazol-4-yl)-1H-pyrazolo[3,4-b]pyridine] the IC50 (MKN45 cells) was 100 to 500 nM.

`COc1ccc(F)c(Cl)c1C(C)c1n[nH]c2ncc(-c3cnn([C@H]4CC[C@H](O)CC4)c3)cc12` (relative stereo) [Example 9, trans-4-(4-{3-[1-(2-Chloro-3-fluoro-6-methoxyphenyl)ethyl]-1H-pyrazolo[3,4-b]pyridin-5-yl}-1H-pyrazol-1-yl)cyclohexanol] gave an IC50 (MKN45 cells) of no more than 100 nM.

For `COc1ccc(F)c(Cl)c1[C@@H](C)c1n[nH]c2ncc(-c3cnn([C@H]4CC[C@H](O)CC4)c3)cc12` [Example 10, trans-4-(4-{3-[(1R)-1-(2-Chloro-3-fluoro-6-methoxyphenyl)ethyl]-1H-pyrazolo[3,4-b]pyridin-5-yl}-1H-pyrazol-1-yl)cyclohexanol], the IC50 (MKN45 cells) was no more than 100 nM and the IC50 (sfRON) was 100 to 500 nM.

`C[C@H](c1c(Cl)ccc(F)c1Cl)n1ccc2ncc(-c3cnn(C4CCN(C=O)CC4)c3)cc21` [Example 6, 4-(4-{1-[(1R)-1-(2,6-Dichloro-3-fluorophenyl)ethyl]-1H-pyrrolo[3,2-b]pyridin-6-yl}-1H-pyrazol-1-yl)piperidine-1-carbaldehyde] was tested, and the IC50 (MKN45 cells) was 100 to 500 nM and the IC50 (sfRON) was 500 to 1000 nM.

In the case of `C[C@H](c1c(Cl)ccc(F)c1Cl)n1ccc2ncc(-c3cnn(C)c3)cc21` [Example 4, 1-[(1R)-1-(2,6-dichloro-3-fluorophenyl)ethyl]-6-(1-methyl-1H-pyrazol-4-yl)-1H-pyrrolo[3,2-b]pyridine], the IC50 (MKN45 cells) is reported as 500 to 2000 nM and the IC50 (sfRON) is reported as greater than 1000 nM.

With “7-[(2,6-dichloro-3-fluorophenyl)methoxymethyl]-2-(1-piperidin-4-yl-1H-pyrazol-4-yl)-5H-pyrrolo[2,3-b]pyrazine [Example 1]” the IC50 (MET) was 100 to 500 nM.
